Like-named read-outs stand apart in the source and are kept apart here. Where a SMILES comes first, the peptide text is derived from it. Where no end group is shown, it is not given here. [ ]: non-standard residue; d: D form. The star is where a group is joined. hArg = N=C(N)NCCCC[C@H](N)C(=O)O; Hexanoyl = CCCCCC(=O)*; Aib = CC(C)(N)C(=O)O
Tests used:
human VPAC2 [1] = molecular target: T1, human VPAC2 (Homo sapiens, UniProt P41587); test: Alpha screen cAMP in vitro potency, human VPAC2 receptor; format: cell-based; conditions: cAMP generation; single result from two analyses performed in a single run; read-out: Human VPAC2 Receptor: Alpha Screen EC50
T1 construct: expressed in transfected cells
T1 sequence (P41587 24-438): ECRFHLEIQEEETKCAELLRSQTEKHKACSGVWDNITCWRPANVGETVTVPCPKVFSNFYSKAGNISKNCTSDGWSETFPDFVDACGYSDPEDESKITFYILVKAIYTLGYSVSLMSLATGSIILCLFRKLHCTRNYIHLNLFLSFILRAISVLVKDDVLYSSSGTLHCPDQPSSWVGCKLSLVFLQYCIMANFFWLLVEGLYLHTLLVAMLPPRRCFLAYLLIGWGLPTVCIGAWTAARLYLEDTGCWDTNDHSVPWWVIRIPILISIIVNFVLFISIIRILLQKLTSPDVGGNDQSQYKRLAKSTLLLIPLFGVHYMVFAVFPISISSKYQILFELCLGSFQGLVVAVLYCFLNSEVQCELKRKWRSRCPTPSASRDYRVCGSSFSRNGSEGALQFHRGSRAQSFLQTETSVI
Outline: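 Stimulated cAMP accumulation is read by AlphaScreen after 60 min exposure of 50,000 non-enzymatically harvested cells to compound, followed by lysis with donor beads.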

human VPAC2 [2] = molecular target: T1, human VPAC2; test: Filter binding assay, membranes of stable VPAC2 cell line, 125I-labeled VIP tracer (Table 2); conditions: read-out: Human VPAC2 Receptor Binding
Outline: (§1)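 Competition binding of agonists against radiotracer on receptor membranes (2.5 μg) in 25 mM HEPES pH 7.4 with 0.5% protease-free BSA, about 40000 cpm tracer, 1 hour with shaking. Bound tracer was separated by filtration on PEI-presoaked, BSA-blocked glass-fibre filters, washed and counted by scintillation.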

human PAC1 = molecular target: T2, human PAC1 (Homo sapiens, UniProt P41586); test: Filter binding assay, membranes of cells transiently transfected with human PAC1, 125I-labeled PACAP-27 tracer (Table 2); parameters: expressed in transfected cells; conditions: read-out: Human PAC1 Receptor Binding
T2 sequence (P41586 21-468): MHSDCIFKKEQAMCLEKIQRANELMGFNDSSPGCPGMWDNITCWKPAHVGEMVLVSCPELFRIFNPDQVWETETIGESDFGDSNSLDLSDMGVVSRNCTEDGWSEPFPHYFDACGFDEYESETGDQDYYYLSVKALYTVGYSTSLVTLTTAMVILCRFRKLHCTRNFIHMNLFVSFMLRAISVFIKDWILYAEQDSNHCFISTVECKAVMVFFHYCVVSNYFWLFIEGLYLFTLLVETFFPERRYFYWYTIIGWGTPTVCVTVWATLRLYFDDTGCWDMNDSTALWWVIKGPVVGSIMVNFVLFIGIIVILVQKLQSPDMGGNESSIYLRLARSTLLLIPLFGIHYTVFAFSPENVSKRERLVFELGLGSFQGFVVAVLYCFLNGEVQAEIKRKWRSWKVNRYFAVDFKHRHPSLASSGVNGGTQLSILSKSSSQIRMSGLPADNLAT
Outline: as §1

human VPAC1 = molecular target: T3, human VPAC1 (Homo sapiens, UniProt P32241); test: Filter binding assay, membranes of cells transiently transfected with human VPAC1, 125I-labeled VIP tracer (Table 2); parameters: expressed in transfected cells; conditions: read-out: Human VPAC1 Receptor Binding
T3 sequence (P32241 31-457): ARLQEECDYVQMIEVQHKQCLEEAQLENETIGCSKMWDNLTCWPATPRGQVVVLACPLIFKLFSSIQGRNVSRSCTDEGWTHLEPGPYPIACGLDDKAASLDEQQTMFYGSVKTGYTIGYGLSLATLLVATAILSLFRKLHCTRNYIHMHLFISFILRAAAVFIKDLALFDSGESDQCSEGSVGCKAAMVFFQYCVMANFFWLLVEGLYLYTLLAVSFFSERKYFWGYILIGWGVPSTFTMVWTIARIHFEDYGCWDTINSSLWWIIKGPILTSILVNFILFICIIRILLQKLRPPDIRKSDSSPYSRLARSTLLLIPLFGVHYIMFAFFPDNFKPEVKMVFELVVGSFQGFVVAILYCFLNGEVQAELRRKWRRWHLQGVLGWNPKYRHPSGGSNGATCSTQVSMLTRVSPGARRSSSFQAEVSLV
Outline: as §1

[3] = Rat serum stability studies (remaining active peptide by DiscoveRx cAMP on CHO-VPAC2 cells); format: in vitro ADME
Outline: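 Rat serum, 18 h: +aprotinin aliquot at 4° C, no-aprotinin aliquot at 37° C. Then 30 min RT step, supernatant removed, 1 h shaking at 300 rpm. DiscoveRx cAMP kit on CHO-VPAC2; EC50 from cAMP data vs standards.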

human VPAC1 receptor = molecular target: T4, human VPAC1 receptor (human, UniProt P32241 31-457); test: cell-based or functional assay
T4 sequence (looked up): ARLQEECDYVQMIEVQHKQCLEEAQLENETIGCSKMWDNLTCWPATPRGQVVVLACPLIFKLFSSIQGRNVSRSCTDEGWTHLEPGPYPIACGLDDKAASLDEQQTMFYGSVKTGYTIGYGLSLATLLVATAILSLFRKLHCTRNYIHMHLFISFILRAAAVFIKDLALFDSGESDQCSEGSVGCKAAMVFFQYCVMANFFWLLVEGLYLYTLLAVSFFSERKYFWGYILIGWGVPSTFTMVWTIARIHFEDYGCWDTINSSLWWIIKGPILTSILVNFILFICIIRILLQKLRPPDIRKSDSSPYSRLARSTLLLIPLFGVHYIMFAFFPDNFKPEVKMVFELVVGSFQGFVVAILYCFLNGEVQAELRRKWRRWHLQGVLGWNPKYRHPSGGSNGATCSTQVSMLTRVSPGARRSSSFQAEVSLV

human PAC1 receptor = molecular target: T5, human PAC1 receptor (human, UniProt P41586 21-468); test: cell-based or functional assay
T5 sequence (looked up): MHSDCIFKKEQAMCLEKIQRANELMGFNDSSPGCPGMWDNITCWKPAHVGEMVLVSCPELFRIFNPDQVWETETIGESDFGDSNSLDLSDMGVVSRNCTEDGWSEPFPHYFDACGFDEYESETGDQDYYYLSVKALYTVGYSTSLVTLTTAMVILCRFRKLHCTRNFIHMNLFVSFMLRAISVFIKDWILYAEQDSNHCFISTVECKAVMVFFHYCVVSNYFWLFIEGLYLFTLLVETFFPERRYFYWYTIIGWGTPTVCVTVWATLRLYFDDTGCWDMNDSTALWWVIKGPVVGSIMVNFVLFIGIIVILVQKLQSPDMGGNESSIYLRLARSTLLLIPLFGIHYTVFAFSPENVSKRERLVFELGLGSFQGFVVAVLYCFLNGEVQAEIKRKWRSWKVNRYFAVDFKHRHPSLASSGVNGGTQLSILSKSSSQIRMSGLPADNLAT

human VPAC2 receptor = molecular target: T6, human VPAC2 receptor (human, UniProt P41587 24-438); test: cell-based or functional assay
T6 sequence (looked up): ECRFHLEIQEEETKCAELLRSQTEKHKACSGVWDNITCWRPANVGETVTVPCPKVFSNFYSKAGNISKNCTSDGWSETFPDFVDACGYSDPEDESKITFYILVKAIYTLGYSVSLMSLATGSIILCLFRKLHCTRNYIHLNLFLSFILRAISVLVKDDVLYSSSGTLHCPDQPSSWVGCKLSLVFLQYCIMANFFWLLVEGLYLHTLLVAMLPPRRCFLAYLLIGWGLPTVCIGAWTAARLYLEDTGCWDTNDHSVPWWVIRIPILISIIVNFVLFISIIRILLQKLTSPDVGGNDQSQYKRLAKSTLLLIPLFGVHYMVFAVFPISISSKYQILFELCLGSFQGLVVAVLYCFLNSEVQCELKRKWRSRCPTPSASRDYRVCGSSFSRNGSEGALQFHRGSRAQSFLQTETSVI

CCCCCC(=O)N[C@@H](Cc1c[nH]cn1)C(=O)N[C@@H](CO)C(=O)N[C@@H](CC(=O)O)C(=O)N[C@@H](C)C(=O)N[C@H](C(=O)N[C@@H](Cc1ccccc1)C(=O)N[C@H](C(=O)N[C@@H](CC(=O)O)C(=O)N[C@@H](CC(N)=O)C(=O)N[C@@H](Cc1ccc(O)cc1)C(=O)N[C@H](C(=O)N[C@@H](CCCNC(=N)N)C(=O)N[C@@H](CC(C)C)C(=O)N[C@@H](CCCNC(=N)N)C(=O)NC(C)(C)C(=O)N[C@@H](CCC(N)=O)C(=O)N[C@H](C(=O)N[C@@H](C)C(=O)N[C@@H](C)C(=O)NC(C)(C)C(=O)N[C@@H](CCCCN)C(=O)N[C@@H](Cc1ccc(O)cc1)C(=O)N[C@@H](CC(C)C)C(=O)N[C@@H](CCC(N)=O)C(=O)N[C@@H](CO)C(=O)N[C@H](C(=O)N[C@@H](CCCCN)C(=O)N[C@@H](CCC(N)=O)C(=O)NCC(=O)NCC(=O)N1CCC[C@H]1C(=O)N[C@@H](CO)C(=O)N[C@@H](CO)C(=O)NCC(=O)N[C@@H](C)C(=O)N1CCC[C@H]1C(=O)N1CCC[C@H]1C(=O)N1CCC[C@H]1C(=O)N[C@@H](CO)C(=O)O)[C@@H](C)CC)C(C)C)[C@@H](C)O)[C@@H](C)O)C(C)C [Agonist P297] (Hexanoyl-HSDAVFTDNYTRLR[Aib]QVAA[Aib]KYLQSIKQGGPSSGAPPPS-OH; C-terminus assumed)
EC50 (human VPAC2 [1]): 0.36 nM
IC50 (human VPAC2 [2]): 1.95 nM
IC50 (human PAC1): > 25000 nM
IC50 (human VPAC1): > 3000 nM
Rat Serum Stability (estimated purity in % after 18 hours) [3]: 21.17%

Hexanoyl-HSDAVFTDNYTRLRRQVAAKKYLQSIKNKRYGGPSSGAPPPS [Agonist P176]
EC50 (human VPAC2 [1]): 0.28 nM
IC50 (human VPAC2 [2]): 6.88 nM
IC50 (human PAC1): 227 nM
IC50 (human VPAC1): 93 nM
Rat Serum Stability (estimated purity in % after 18 hours) [3]: <0.14%

Hexanoyl-HSDAVFTDNYTRLRKQVAAKFYLQSIKNKRYGGPSSGAPPPS [Agonist P186]
EC50 (human VPAC2 [1]): 0.15 nM
IC50 (human VPAC2 [2]): 0.87 nM
IC50 (human PAC1): 318 nM
IC50 (human VPAC1): 835 nM
Rat Serum Stability (estimated purity in % after 18 hours) [3]: 0.25%

CCCCCC(=O)N[C@@H](Cc1c[nH]cn1)C(=O)N[C@@H](CO)C(=O)N[C@@H](CC(=O)O)C(=O)N[C@@H](C)C(=O)N[C@H](C(=O)N[C@@H](Cc1ccccc1)C(=O)N[C@H](C(=O)N[C@@H](CC(=O)O)C(=O)N[C@@H](CC(N)=O)C(=O)N[C@@H](Cc1ccc(O)cc1)C(=O)N[C@H](C(=O)N[C@@H](CCCNC(=N)N)C(=O)N[C@@H](CC(C)C)C(=O)N[C@@H](CCCNC(=N)N)C(=O)NC(C)(C)C(=O)N[C@@H](CCC(N)=O)C(=O)N[C@H](C(=O)N[C@@H](C)C(=O)N[C@@H](C)C(=O)N[C@@H](CCCCN)C(=O)NC(C)(C)C(=O)N[C@@H](Cc1ccc(O)cc1)C(=O)N[C@@H](CC(C)C)C(=O)N[C@@H](CCC(N)=O)C(=O)N[C@@H](CO)C(=O)N[C@H](C(=O)N[C@@H](CCCCN)C(=O)N[C@@H](CCC(N)=O)C(=O)N[C@@H](CCCCN)C(=O)NCC(=O)NCC(=O)N1CCC[C@H]1C(=O)N[C@@H](CO)C(=O)N[C@@H](CO)C(=O)NCC(=O)N[C@@H](C)C(=O)N1CCC[C@H]1C(=O)N1CCC[C@H]1C(=O)N1CCC[C@H]1C(=O)N[C@@H](CO)C(=O)O)[C@@H](C)CC)C(C)C)[C@@H](C)O)[C@@H](C)O)C(C)C [Agonist P295] (Hexanoyl-HSDAVFTDNYTRLR[Aib]QVAAK[Aib]YLQSIKQKGGPSSGAPPPS-OH; C-terminus assumed)
EC50 (human VPAC2 [1]): 0.39 nM
IC50 (human VPAC2 [2]): 0.75 nM
IC50 (human PAC1): > 25000 nM
IC50 (human VPAC1): > 3000 nM
Rat Serum Stability (estimated purity in % after 18 hours) [3]: 22.22%

Hexanoyl-HSDAVFTDNYTRLKKQVAAKKYLQSIKNKRYGGPSSGAPPPS [Agonist P171]
EC50 (human VPAC2 [1]): 0.82 nM
IC50 (human VPAC2 [2]): 5.81 nM
IC50 (human PAC1): 335 nM
IC50 (human VPAC1): 174 nM
Rat Serum Stability (estimated purity in % after 18 hours) [3]: 1.78%

Hexanoyl-HSDAVFTDNYTRLQKQVAA[Aib]KYLQSIKNKRYGGPSSGAPPPS [Agonist P250]
EC50 (human VPAC2 [1]): 0.18 nM
IC50 (human VPAC2 [2]): 0.63 nM
IC50 (human PAC1): > 25000 nM
IC50 (human VPAC1): 855 nM
Rat Serum Stability (estimated purity in % after 18 hours) [3]: 7.11%

B1: P22 (peptide)
peptide: HSDAVFTDNYTRLRKQVAAKKYLQSI[hArg]NKRYGGPSSGAPPPS
modifications: ends and bridges not checked
EC50 cAMP, DiscoveRx (human VPAC1 receptor): 0.9 nM
EC50 cAMP, DiscoveRx (human PAC1 receptor): 73.5 nM
EC50 cAMP, Alpha Screen (human VPAC2 receptor): 2.23 nM
EC50 cAMP, DiscoveRx (human VPAC2 receptor): 1.18 nM

B2: P18 (peptide)
peptide: HSDAVFTDNYTRLRKQVAA[hArg]KYLQSIKNKRYGGPSSGAPPPS
modifications: ends and bridges not checked
EC50 cAMP, DiscoveRx (human VPAC1 receptor): 0.4 nM
EC50 cAMP, DiscoveRx (human PAC1 receptor): > 50 nM
EC50 cAMP, DiscoveRx (human PAC1 receptor; record 2): 435 nM

From US20080026996A1, “Selective Vpac2 Receptor Reptide Agonists” (ELI LILLY AND COMPANY, priority 2004, published 2008)
